Test results published in PubChem BioAssay (NCI).
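Five concentrations, 48 hours, 96-well plates. TGI is the concentration that stops growth completely.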

How the values were obtained:
Assay in all cases: NCI anticancer screen, dose series, 48 h
SK-MEL-28 melanoma = test system: SK-MEL-28 melanoma
HOP-62 NSCLC = test system: HOP-62 NSCLC
UACC-62 melanoma = test system: UACC-62 melanoma
SF-295 CNS = test system: SF-295 CNS
SF-268 CNS = test system: SF-268 CNS
RXF 393 renal = test system: RXF 393 renal
HL-60(TB) leukemia = test system: HL-60(TB) leukemia
SNB-78 CNS = test system: SNB-78 CNS
SK-OV-3 ovarian = test system: SK-OV-3 ovarian
NCI-H460 lung = test system: NCI-H460 lung
SW-620 colon = test system: SW-620 colon
SNB-19 CNS = test system: SNB-19 CNS
OVCAR-8 ovarian = test system: OVCAR-8 ovarian
NCI-H23 lung = test system: NCI-H23 lung
SK-MEL-5 melanoma = test system: SK-MEL-5 melanoma
HCT-15 colon = test system: HCT-15 colon
NCI-H226 lung = test system: NCI-H226 lung
CCRF-CEM leukemia = test system: CCRF-CEM leukemia
MOLT-4 leukemia = test system: MOLT-4 leukemia
U251 CNS = test system: U251 CNS
UACC-257 melanoma = test system: UACC-257 melanoma
NCI-H522 lung = test system: NCI-H522 lung
HT29 colon = test system: HT29 colon
EKVX NSCLC = test system: EKVX NSCLC
HCT-116 colon = test system: HCT-116 colon
LOX IMVI melanoma = test system: LOX IMVI melanoma
IGROV1 ovarian = test system: IGROV1 ovarian
K-562 leukemia = test system: K-562 leukemia
786-0 renal = test system: 786-0 renal
DMS 273 small cell lung = test system: DMS 273 small cell lung
HCC-2998 colon = test system: HCC-2998 colon
SR leukemia = test system: SR leukemia
KM12 colon = test system: KM12 colon
HOP-92 NSCLC = test system: HOP-92 NSCLC
SN12C renal = test system: SN12C renal
LXFL 529 NSCLC = test system: LXFL 529 NSCLC
OVCAR-5 ovarian = test system: OVCAR-5 ovarian
SK-MEL-2 melanoma = test system: SK-MEL-2 melanoma
CAKI-1 renal = test system: CAKI-1 renal
TK-10 renal = test system: TK-10 renal
RXF-631 renal = test system: RXF-631 renal
M14 melanoma = test system: M14 melanoma
ACHN renal = test system: ACHN renal
UO-31 renal = test system: UO-31 renal
XF 498 CNS = test system: XF 498 CNS
A549 NSCLC = test system: A549 NSCLC
DMS 114 small cell lung = test system: DMS 114 small cell lung
SF-539 CNS = test system: SF-539 CNS
COLO 205 colon = test system: COLO 205 colon
KM20L2 colon = test system: KM20L2 colon
RPMI-8226 leukemia = test system: RPMI-8226 leukemia
SNB-75 CNS = test system: SNB-75 CNS
M19-MEL melanoma = test system: M19-MEL melanoma
OVCAR-3 ovarian = test system: OVCAR-3 ovarian
MALME-3M melanoma = test system: MALME-3M melanoma
DLD-1 colon = test system: DLD-1 colon
OVCAR-4 ovarian = test system: OVCAR-4 ovarian
A498 renal = test system: A498 renal

Measured: TGI

CN=c1ssc(/N=C(\SC)N(C)C)[n+]1C
not listed: DMS 114 small cell lung | SF-539 CNS | COLO 205 colon | KM20L2 colon | RPMI-8226 leukemia | SNB-75 CNS | M19-MEL melanoma | OVCAR-3 ovarian | MALME-3M melanoma | DLD-1 colon | OVCAR-4 ovarian | A498 renal
> 100 µM: all other assays above

O=C(Cc1cc[n+]([O-])cc1)C(=O)Nc1cc(Cl)c(Cl)cc1Cl
not listed: NCI-H226 lung | HT29 colon | LOX IMVI melanoma | DMS 273 small cell lung | SR leukemia | SN12C renal | CAKI-1 renal | XF 498 CNS
> 100 µM: all other assays above
